Among the data in patent US20240150339A1, “Compounds and Their Use as PDE4 Activators” (Mironid Limited, priority 2021, published 2024) are activity values, retold here.

The test deals with m-IMCD3 cells. The experiment in a line: Inhibition of PGE2-stimulated in vitro cyst formation in 3D culture of m-IMCD3 cells. The test is classed as cell-based, mouse. As to conditions: Mus musculus, mIMCD3, 144 h; 10 μM test compound; mean cyst area (%) compared to 100% for (DMSO + PGE2) and 0% for DMSO control; 100 nM PGE2; 6 days; read-out: % Cyst area after incubation with 10 μM test compound. Here is the method: HEK 293 and MDCK cells (Public Health England, Cell Culture Collections) were maintained in Dulbecco's Modified Eagle's Medium (DMEM) supplemented with 10% (v/v) fetal bovine serum (FBS) (Seralab), 2 mM L-glutamine and 100 U/ml penicillin streptomycin cocktail (ThermoFisher); termed complete media. Clonal HEK 293 cell lines were maintained in complete media supplemented with 0.6 mg/mL G418 (Enzo Life Sciences). Mouse inner medullary collecting duct (m-IMCD3) cells [American Type Culture Collection (ATCC)] were maintained in media consisting of DMEM/Hams F-12 50/50 Mix (DMEM F12; Corning) supplemented with penicillin streptomycin cocktail (100 U/ml) and FBS (10% v/v) (DMEM F12-10% FBS).
The mouse Inner Medullary Collecting Duct cell line (m-IMCD3) spontaneously forms cystic spheroids in 3D culture with a Type 1 collagen/Matrigel extracellular matrix. This process can be stimulated with agents which raise intracellular cAMP, such as PGE2, and is used as an in vitro model for the formation of cystic structures in the kidneys of patients with ADPKD.
Rat Collagen I (Fisher Scientific) is prepared on ice by neutralising with 1M NaOH and diluting with a 2×volume of DMEM/F12+10% FBS for coating plate (coating mix) and a 2.2 volume of DMEM/F12+10% FBS for cell plating (plating mix). This is mixed 1:1.1 with ice cold Matrigel (Corning) for coating plates (coating mix), and 1:0.95 with Matrigel for cell plating (plating mix).
The assay is conducted in the wells of a 96-well plate culture dish using a total volume of 130 μl of collagen/Matrigel/DMEM F12-10% FBS suspension in growth media for each matrix plug per individual well. Initially, 30 μl of collagen/Matrigel/DMEM F12-10% FBS (coating mix) is added into the well of a 96 well plate and the collagen is set to a gel by incubating at 37° C. for at least 15 minutes. A second layer of 100 μl collagen/Matrigel suspension (plating mix) containing m-IMCD3 cells (2.75×10^6 m-IMCD3 cells per 96-well plate) is layered over the coating mix and the collagen/Matrigel/cell mix again set to a gel by incubating at 37° C. Cell cultures are maintained at 37° C. in an atmosphere of 5% CO2, 95% air.
Between 18 and 24h after plating, test compound(s) as DMSO stock solutions [0.1% (v/v) final DMSO concentration] and PGE2 (100 nM final concentration) in DMEM F12-10% FBS are added in quadruplicate wells per condition. Media, togetherwith the test compound and PGE2 are replenished after 2 or 3 days. After 6 days of culture z stack images of the wells are captured using the Nikon Eclipse Ti2-E microscope. Nikon General Analysis software is used to measure the following parameters in each well: the mean cyst area, the number of cysts, and the total cyst area.
PDE4 long form activators inhibited in vitro cyst formation in m-IMCD3 cells. Data are shown in FIG. 2 and Table 5 as mean cyst area (%), compared to 100% for (DMSO+PGE2) and 0% for DMSO control.
Turning to `O=C(N[C@H]1CCOc2ccccc21)c1ccc2nc([C@H]3CCCNC3)sc2c1` (single isomer, unassigned) [Example 176], the activity at 10 µM was 1%.

Consider `Cc1ncccc1-c1nc2ccc(C(=O)NCc3ccc(F)cc3)cc2s1` [Example 2, N-(4-fluorobenzyl)-2-(2-methylpyridin-3-yl)benzo[d]thiazole-6-carboxamide], for which the activity at 10 µM was -9%.

Regarding `COc1ccc(CNC(=O)c2ccc3nc(-c4cccnc4C)sc3c2)cc1` [Example 3, N-(4-methoxybenzyl)-2-(2-methylpyridin-3-yl)benzo[d]thiazole-6-carboxamide], the activity at 10 µM was 23%.

As to `Cc1ncccc1-c1nc2ccc(C(=O)NCc3cccc(F)c3)cc2s1` [Example 4, N-(3-fluorobenzyl)-2-(2-methylpyridin-3-yl)benzo[d]thiazole-6-carboxamide], the activity at 10 µM was 6%.

For `Cc1ncccc1-c1nc2ccc(C(=O)N[C@H]3CCc4ccccc43)cc2s1` [Example 5, (S)-N-(2,3-dihydro-1H-inden-1-yl)-2-(2-methylpyridin-3-yl)benzo[d]thiazole-6-carboxamide], the activity at 10 µM is 1%.

Regarding `CC(C)c1ccc(-c2nc3ccc(C(=O)N[C@H]4CCOc5ccccc54)cc3s2)cn1` [Example 28, (S)-N-(chroman-4-yl)-2-(6-isopropylpyridin-3-yl)benzo[d]thiazole-6-carboxamide], the activity at 10 µM amounted to 26%.

Turning to `CCc1ccc(-c2nc3ccc(C(=O)N[C@H]4CCOc5ccccc54)cc3s2)cn1` [Example 29, (S)-N-(chroman-4-yl)-2-(6-ethylpyridin-3-yl)benzo[d]thiazole-6-carboxamide], the activity at 10 µM is 22%.

Take `Cc1cncc(-c2nc3ccc(C(=O)NCc4ccccc4)cc3s2)c1` [Example 30, N-benzyl-2-(5-methylpyridin-3-yl)benzo[d]thiazole-6-carboxamide]: the activity at 10 µM came out at 21%.

`Cc1cncc(-c2nc3ccc(C(=O)NCc4cccc(Cl)c4)cc3s2)c1` [Example 34, N-[(3-chlorophenyl)methyl]-2-(5-methylpyridin-3-yl)benzo[d]thiazole-6-carboxamide]: the activity at 10 µM was determined as 26%.

With `COc1cccc(CNC(=O)c2ccc3nc(-c4cncc(C)c4)sc3c2)c1` [Example 36, N-(3-methoxybenzyl)-2-(5-methylpyridin-3-yl)benzo[d]thiazole-6-carboxamide], the activity at 10 µM came to 30%.

For `Cc1ccnc(C)c1-c1nc2ccc(C(=O)N[C@H]3CCOc4ccccc43)cc2s1` [Example 52, (S)-N-(chroman-4-yl)-2-(2,4-dimethylpyridin-3-yl)benzo[d]thiazole-6-carboxamide], the activity at 10 µM was found to be 24%.

For `O=C(N[C@H]1CCOc2ccccc21)c1ccc2nc(N3CCOCC3)sc2c1` [Example 69, (S)-N-(chroman-4-yl)-2-morpholinobenzo[d]thiazole-6-carboxamide], the activity at 10 µM amounted to 20%.

Take `COC1CCN(c2nc3ccc(C(=O)N[C@H]4CCOc5ccccc54)cc3s2)CC1` [Example 70, (S)-N-(chroman-4-yl)-2-(4-methoxypiperidin-1-yl)benzo[d]thiazole-6-carboxamide]: the activity at 10 µM was -18%.

Turning to `CN1CCN(c2nc3ccc(C(=O)N[C@H]4CCOc5ccccc54)cc3s2)CC1` [Example 71, (S)-N-(chroman-4-yl)-2-(4-methylpiperazin-1-yl)benzo[d]thiazole-6-carboxamide], the activity at 10 µM was -1%.

For the molecule `CCN1CCN(c2nc3ccc(C(=O)N[C@@H]4CCOc5ccccc54)cc3s2)CC1` [Example 73, (R)-N-(chroman-4-yl)-2-(4-ethylpiperazin-1-yl)benzo[d]thiazole-6-carboxamide], the activity at 10 µM worked out at 26%.

With `CC(C)N1CCN(c2nc3ccc(C(=O)N[C@H]4CCOc5ccccc54)cc3s2)CC1` [Example 74, (S)-N-(chroman-4-yl)-2-(4-isopropylpiperazin-1-yl)benzo[d]thiazole-6-carboxamide], the activity at 10 µM came out at 8%.

Take `CC(C)(C)N1CCN(c2nc3ccc(C(=O)N[C@H]4CCOc5ccccc54)cc3s2)CC1` [Example 75, (S)-2-(4-(tert-butyl)piperazin-1-yl)-N-(chroman-4-yl)benzo[d]thiazole-6-carboxamide]: the activity at 10 µM was -1%.

`O=C(N[C@H]1CCOc2ccccc21)c1ccc2nc(N3C[C@H]4C[C@@H]3CN4)sc2c1` [Example 78, 2-((1R,4R)-2,5-diazabicyclo[2.2.1]heptan-2-yl)-N-((S)-chroman-4-yl)benzo[d]thiazole-6-carboxamide]: the activity at 10 µM was found to be 24%.

In the case of `CCN1CCN(c2nc3ccc(C(=O)NCc4ccc(F)cc4)cc3s2)CC1` [Example 80, 2-(4-ethylpiperazin-1-yl)-N-(4-fluorobenzyl)benzo[d]thiazole-6-carboxamide], the activity at 10 µM was 26%.

As for `CCN1CCN(c2nc3ccc(C(=O)NC4CCCC4)cc3s2)CC1` [Example 81, N-cyclopentyl-2-(4-ethylpiperazin-1-yl)benzo[d]thiazole-6-carboxamide], the activity at 10 µM worked out at 7%.

Take `CCN1CCN(c2nc3ccc(C(=O)NC(C)C)cc3s2)CC1` [Example 82, 2-(4-ethylpiperazin-1-yl)-N-isopropylbenzo[d]thiazole-6-carboxamide]: the activity at 10 µM came out at 6%.

Take `O=C(N[C@H]1CCOc2c(F)cccc21)c1ccc2nc(N3CCNCC3)sc2c1` [Example 85, (S)-N-(8-fluorochroman-4-yl)-2-(piperazin-1-yl)benzo[d]thiazole-6-carboxamide]: the activity at 10 µM was -12%.

Take `O=C(N[C@@H]1CCOc2cc(F)ccc21)c1ccc2nc(N3CCNCC3)sc2c1` [Example 88, (R)-N-(7-fluorochroman-4-yl)-2-(piperazin-1-yl)benzo[d]thiazole-6-carboxamide]: the activity at 10 µM is 22%.

Turning to `COc1ccc2c(c1)OCC[C@H]2NC(=O)c1ccc2nc(N3CCNCC3)sc2c1` [Example 93, (R)-N-(7-methoxychroman-4-yl)-2-(piperazin-1-yl)benzo[d]thiazole-6-carboxamide], the activity at 10 µM amounted to 9%.

Consider `O=C(N[C@H]1CCc2ccccc21)c1ccc2nc(N3CCNCC3)sc2c1` [Example 96, (S)-N-(2,3-dihydro-1H-inden-1-yl)-2-(piperazin-1-yl)benzo[d]thiazole-6-carboxamide], for which the activity at 10 µM was 2%.

Regarding `O=C(N[C@H]1CCc2cccc(F)c21)c1ccc2nc(N3CCNCC3)sc2c1` [Example 98, (S)-N-(7-fluoro-2,3-dihydro-1H-inden-1-yl)-2-(piperazin-1-yl)benzo[d]thiazole-6-carboxamide], the activity at 10 µM amounted to 27%.

As for `O=C(N[C@@H]1CCc2c(F)cccc21)c1ccc2nc(N3CCNCC3)sc2c1` [Example 104, (R)-N-(4-fluoro-2,3-dihydro-1H-inden-1-yl)-2-(piperazin-1-yl)benzo[d]thiazole-6-carboxamide], the activity at 10 µM came to 30%.

Take `COc1ccc2c(c1)[C@H](NC(=O)c1ccc3nc(N4CCNCC4)sc3c1)CC2` [Example 107, (R)-N-(6-methoxy-2,3-dihydro-1H-inden-1-yl)-2-(piperazin-1-yl)benzo[d]thiazole-6-carboxamide]: the activity at 10 µM was found to be 17%.

For `COc1ccc2c(c1)CC[C@@H]2NC(=O)c1ccc2nc(N3CCNCC3)sc2c1` [Example 108, (S)-N-(5-methoxy-2,3-dihydro-1H-inden-1-yl)-2-(piperazin-1-yl)benzo[d]thiazole-6-carboxamide], the activity at 10 µM came to 22%.
